Results from ChEMBL document CHEMBL1201862, “PubChem BioAssay data set” (2004).
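Assay format: 96-well plates, 48-hour exposure. The concentration for 50% growth inhibition is given as GI50.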 Activity calls are given as the source filed them. No stated cut-off is given here; in the data, active = GI50 up to about 1.1 µM and inactive = higher.

Tests used:
Experiment in all cases: growth of human tumour cells (NCI), 48 h
[1] = test system: UO-31
[2] = test system: NCI-H522
[3] = test system: SF-295
[4] = test system: COLO 205
[5] = test system: SW-620
[6] = test system: CAKI-1
[7] = test system: A549
[8] = test system: DMS-114
[9] = test system: HCC 2998
[10] = test system: 786-0
[11] = test system: SK-MEL-28
[12] = test system: SNB-78
[13] = test system: SNB-75
[14] = test system: RXF 393
[15] = test system: SR
[16] = test system: A498
[17] = test system: OVCAR-8
[18] = test system: SK-MEL-5
[19] = test system: TK-10
[20] = test system: UACC-257
[21] = test system: NCI-H460
[22] = test system: HCT-15
[23] = test system: HOP-62
[24] = test system: DLD-1
[25] = test system: U-251
[26] = test system: HCT-116
[27] = test system: HOP-92
[28] = test system: SF-539
[29] = test system: RXF 631
[30] = test system: SF-268
[31] = test system: LXFL 529
[32] = test system: KM-20L2
[33] = test system: DMS-273
[34] = test system: ACHN
[35] = test system: M19-MEL
[36] = test system: OVCAR-3
[37] = test system: HL-60
[38] = test system: NCI-H23
[39] = test system: OVCAR-4
[40] = test system: K562
[41] = test system: SNB-19
[42] = test system: HOP-18
[43] = test system: UACC-62
[44] = test system: OVCAR-5
[45] = test system: KM12
[46] = test system: MOLT-4
[47] = test system: Malme-3M
[48] = test system: SN12C
[49] = test system: NCI-H226
[50] = test system: HT-29
[51] = test system: EKVX
[52] = test system: XF498
[53] = test system: LOX IMVI
[54] = test system: IGROV-1
[55] = test system: M14
[56] = test system: RPMI-8226
[57] = test system: SK-OV-3
[58] = test system: CCRF-CEM
[59] = test system: SK-MEL-2

Cc1ccc(S(=O)OC23CC4CC(CC(C4)C2)C3)cc1 (stereo not drawn) was tested, and the GI50 [1] was 41.2 µM (inactive), the GI50 [2] was 30.5 µM (inactive) and the GI50 [3] was > 100 µM (inactive). For the same compound, the GI50 [4] was > 100 µM (inactive), the GI50 [5] was 84.1 µM (inactive) and the GI50 [6] was > 100 µM (inactive). For the same compound, the GI50 [7] was > 100 µM (inactive), the GI50 [8] was 78.5 µM (inactive) and the GI50 [9] was > 100 µM (inactive). The GI50 [10] was > 100 µM (inactive), the GI50 [11] was > 100 µM (inactive) and the GI50 [12] was > 100 µM (inactive). The GI50 [13] was 69.5 µM (inactive), the GI50 [14] was 70.1 µM (inactive) and the GI50 [15] was 35.7 µM (inactive). The GI50 [16] was > 100 µM (inactive), the GI50 [17] was > 100 µM (inactive) and the GI50 [18] was > 100 µM (inactive). For the same compound, the GI50 [19] was > 100 µM (inactive), the GI50 [20] was > 100 µM (inactive) and the GI50 [21] was > 100 µM (inactive). The GI50 [22] was over 100 µM, the GI50 [23] was > 100 µM (inactive) and the GI50 [24] was > 100 µM (inactive). For the same compound, the GI50 [25] was 36.8 µM (inactive), the GI50 [26] was > 100 µM (inactive) and the GI50 [27] was > 100 µM (inactive). The GI50 [28] was > 100 µM (inactive), the GI50 [29] was 72.8 µM (inactive) and the GI50 [30] was 86.1 µM (inactive). The GI50 [31] was > 100 µM (inactive), the GI50 [32] was > 100 µM (inactive) and the GI50 [33] was > 100 µM (inactive). For the same compound, the GI50 [34] was > 100 µM (inactive), the GI50 [35] was > 100 µM (inactive) and the GI50 [36] was > 100 µM (inactive). For the same compound, the GI50 [37] was 19.4 µM (inactive), the GI50 [38] was > 100 µM (inactive) and the GI50 [39] was > 100 µM (inactive). For the same compound, the GI50 [40] was > 100 µM (inactive), the GI50 [41] was > 100 µM (inactive) and the GI50 [42] was > 100 µM (inactive). For the same compound, the GI50 [43] was > 100 µM (inactive), the GI50 [44] was > 100 µM (inactive) and the GI50 [45] was > 100 µM (inactive). The GI50 [46] was 29.9 µM (inactive), the GI50 [47] was > 100 µM (inactive) and the GI50 [48] was > 100 µM (inactive). For the same compound, the GI50 [49] was > 100 µM (inactive), the GI50 [50] was > 100 µM (inactive) and the GI50 [51] was > 100 µM (inactive). The GI50 [52] was > 100 µM (inactive), the GI50 [53] was 39.2 µM (inactive) and the GI50 [54] was 29.4 µM (inactive). The GI50 [55] was > 100 µM (inactive), the GI50 [56] was 41.4 µM (inactive) and the GI50 [57] was > 100 µM (inactive).
O=C1c2cccc3cccc(c23)C(=O)N1CCN(CCO)CCO was tested, and the GI50 [58] was 30.3 µM (inactive), the GI50 [1] was 30.5 µM (inactive) and the GI50 [3] was 47.4 µM (inactive). The GI50 [4] was 15.6 µM (inactive), the GI50 [5] was 19.1 µM (inactive) and the GI50 [7] was 27.2 µM (inactive). The GI50 [9] was 26.2 µM (inactive), the GI50 [10] was 40.6 µM (inactive) and the GI50 [11] was 35.8 µM (inactive). For the same compound, the GI50 [12] was 42.1 µM (inactive), the GI50 [13] was 30.1 µM (inactive) and the GI50 [14] was 20.9 µM (inactive). For the same compound, the GI50 [15] was 11.3 µM (inactive), the GI50 [16] was 17.3 µM (inactive) and the GI50 [17] was 16.3 µM (inactive). The GI50 [18] was 17.2 µM (inactive), the GI50 [19] was 17.5 µM (inactive) and the GI50 [20] was 22.5 µM (inactive). The GI50 [21] was 23.4 µM (inactive), the GI50 [22] was 22.8 µM and the GI50 [23] was 31.7 µM (inactive). The GI50 [24] was 30.6 µM (inactive), the GI50 [25] was 32.4 µM (inactive) and the GI50 [26] was 16.9 µM (inactive). The GI50 [27] was 26.7 µM (inactive), the GI50 [28] was 23.5 µM (inactive) and the GI50 [29] was 35.8 µM (inactive). For the same compound, the GI50 [30] was 35.6 µM (inactive), the GI50 [31] was 32.3 µM (inactive) and the GI50 [32] was 21.1 µM (inactive). The GI50 [33] was 22.8 µM (inactive), the GI50 [34] was 23.9 µM (inactive) and the GI50 [35] was 21.5 µM (inactive). The GI50 [36] was 33.8 µM (inactive), the GI50 [37] was > 100 µM (inactive) and the GI50 [38] was 25.4 µM (inactive). The GI50 [39] was 25.5 µM (inactive), the GI50 [40] was 25.5 µM (inactive) and the GI50 [41] was 38.3 µM (inactive). For the same compound, the GI50 [42] was 75 µM (inactive), the GI50 [43] was 20.6 µM (inactive) and the GI50 [44] was 20.9 µM (inactive). For the same compound, the GI50 [45] was 29.5 µM (inactive), the GI50 [46] was 24.2 µM (inactive) and the GI50 [47] was 21.2 µM (inactive). For the same compound, the GI50 [48] was 25.4 µM (inactive), the GI50 [49] was 16 µM (inactive) and the GI50 [59] was 12.2 µM (inactive). For the same compound, the GI50 [50] was 27.9 µM (inactive), the GI50 [51] was 31.1 µM (inactive) and the GI50 [52] was 28.5 µM (inactive). The GI50 [53] was 18 µM (inactive), the GI50 [54] was 32.7 µM (inactive) and the GI50 [55] was 20 µM (inactive). For the same compound, the GI50 [56] was 12.9 µM (inactive) and the GI50 [57] was 55.1 µM (inactive).
With Cc1c(C(=O)O)oc2ccc([N+](=O)[O-])cc12 the GI50 [58] was > 100 µM (inactive), the GI50 [1] was > 100 µM (inactive) and the GI50 [2] was > 100 µM (inactive). The GI50 [3] was > 100 µM (inactive), the GI50 [4] was > 100 µM (inactive) and the GI50 [5] was > 100 µM (inactive). For the same compound, the GI50 [6] was > 100 µM (inactive), the GI50 [7] was > 100 µM (inactive) and the GI50 [8] was > 100 µM (inactive). The GI50 [9] was > 100 µM (inactive), the GI50 [10] was > 100 µM (inactive) and the GI50 [11] was > 100 µM (inactive). For the same compound, the GI50 [12] was > 100 µM (inactive), the GI50 [16] was > 100 µM (inactive) and the GI50 [17] was > 100 µM (inactive). For the same compound, the GI50 [18] was > 100 µM (inactive), the GI50 [19] was > 100 µM (inactive) and the GI50 [20] was > 100 µM (inactive). The GI50 [21] was > 100 µM (inactive), the GI50 [22] was over 100 µM and the GI50 [23] was > 100 µM (inactive). The GI50 [24] was > 100 µM (inactive), the GI50 [25] was > 100 µM (inactive) and the GI50 [26] was > 100 µM (inactive). The GI50 [27] was 72.4 µM (inactive), the GI50 [28] was > 100 µM (inactive) and the GI50 [29] was > 100 µM (inactive). For the same compound, the GI50 [30] was > 100 µM (inactive), the GI50 [31] was > 100 µM (inactive) and the GI50 [32] was > 100 µM (inactive). For the same compound, the GI50 [33] was > 100 µM (inactive), the GI50 [34] was > 100 µM (inactive) and the GI50 [35] was > 100 µM (inactive). For the same compound, the GI50 [36] was > 100 µM (inactive), the GI50 [37] was > 100 µM (inactive) and the GI50 [38] was > 100 µM (inactive). For the same compound, the GI50 [39] was > 100 µM (inactive), the GI50 [40] was > 100 µM (inactive) and the GI50 [41] was > 100 µM (inactive). For the same compound, the GI50 [42] was > 100 µM (inactive), the GI50 [43] was > 100 µM (inactive) and the GI50 [44] was > 100 µM (inactive). The GI50 [45] was > 100 µM (inactive), the GI50 [46] was > 10 µM (inactive) and the GI50 [47] was > 100 µM (inactive). For the same compound, the GI50 [48] was > 100 µM (inactive), the GI50 [59] was > 100 µM (inactive) and the GI50 [50] was > 100 µM (inactive). The GI50 [51] was > 100 µM (inactive), the GI50 [52] was > 100 µM (inactive) and the GI50 [53] was > 100 µM (inactive). For the same compound, the GI50 [54] was > 100 µM (inactive), the GI50 [55] was > 100 µM (inactive) and the GI50 [56] was > 10 µM (inactive). The GI50 [57] was > 100 µM (inactive).
